The values that follow come from patent publication US6867320B2, “Substituted phenylalkanoic acid derivatives and use thereof” (Asahi Kasei Pharma Corporation, priority 2002, dated 2005).

For experiment [1], the system named is PGD2 production from IgE-stimulated RBL-2H3 cells. In words: Suppressing action on PGD2 production from IgE-stimulated RBL-2H3 cells. Type of experiment: cell-based. The settings on record: Rattus norvegicus, 10 min, IgE/DNP-BSA stimulated RBL-2H3 cells, read-out: PGD2 production suppression ratio. In short, it runs like this:
(§1)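 Rat RBL-2H3 mastocytoma cells, sensitized 30 min with anti-DNP-BSA IgE, then given test compound in 0.5% FBS medium and stimulated with DNP-BSA (100 ng/ml final). Supernatant PGD2 and LTB4 were measured by EIA after 10 min. Suppression ratio is calculated against unstimulated and stimulant-only controls.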

For experiment [2], the system named is LTB4 production from IgE-stimulated RBL-2H3 cells. In words: Suppressing action on LTB4 production from IgE-stimulated RBL-2H3 cells. In kind it is cell-based. The following applies: Rattus norvegicus, 10 min, IgE/DNP-BSA stimulated RBL-2H3 cells, read-out: LTB4 production suppression ratio. In short, it runs like this:
as §1

Experiment [3] concerns PGE2 production from IL-1β-stimulated MG-63 cells. Briefly: Suppressing action on PGE2 production from IL-1β-stimulated MG-63 cells. In kind it is cell-based. The settings on record: Homo sapiens, IL-1β 1 ng/ml, 18 hours, read-out: PGE2 production suppression ratio. In short, it runs like this: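 PGE2 in 18 h supernatants was quantified by EIA and expressed as % suppression relative to IL-1β-only and unstimulated controls. Cells were the MG-63 osteosarcoma line, plated at 2×10^4/well, given compound in 0.5% FBS EMEM, then 1 ng/ml IL-1β final.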

The subject of experiment [4] is zymosan-stimulated footpad edema. Briefly: Mouse zymosan-stimulated footpad edema reaction. The settings on record: ICR female mice, oral 0.1 to 500 mg/kg, compared with positive control group. In kind it is in vivo. The procedure, abridged:
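Female ICR mice (6–7 weeks, n=8) dosed orally at 0.1 to 500 mg/kg in 0.5% methylcellulose; 1 h later zymosan (1 mg/ml, 0.02 ml) injected s.c. into right hind footpad. Edema volume at 1 and 2 h gave AUC to 2 h; suppression (%) calculated against positive control AUC.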

In experiment [5] the test system is IgE-stimulated footpad edema. Briefly: Mouse IgE-stimulated footpad edema reaction. In kind it is in vivo. The following applies: C57BL/6 male mice, oral 0.1 to 500 mg/kg, compared with positive control group. In short, it runs like this:
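Male C57BL/6 mice (9–11 weeks, n=5) sensitised one day earlier by footpad injection of anti-DNP-BSA IgE serum; compound given orally in 0.5% methylcellulose at 0.1 to 500 mg/kg, then DNP-BSA i.v. 2 h later. Footpad swelling measured at 10–30 min, expressed as AUC and % suppression versus vehicle control.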

In the case of `O=C(O)CCc1ccc(OCC2CCCC2)c(-c2ccc3c(ccn3CCO)c2)c1` [Compound 243, 3-{4-cyclopentylmethyloxy-3-[1-(2-hydroxyethyl)-1H-indol-5-yl]phenyl}propionic acid], the inhibition at 0.4 µM in experiment [1], in experiment [2] and in experiment [3] was ≥ 50% throughout. Also, the “suppression of footpad edema caused by zymosan” value (“suppression … by zymosan” below) in experiment [4] is recorded as “suppressed footpad edema”. Further, in experiment [5], the “suppression of footpad edema caused by IgE stimulation” value (from here on “suppression … by IgE stimulation”) was “suppressed the footpad edema”.
For `Cn1ccc2cc(-c3cc(CCC(=O)O)ccc3OCc3ccccc3Cl)ccc21` [Compound 245, 3-[4-(2-chlorophenylmethyloxy)-3-(1-methyl-1H-indol-5-yl)phenyl]propionic acid], the inhibition at 0.4 µM in experiment [1], in experiment [2] and in experiment [3] was ≥ 50% throughout. The “suppression … by zymosan” value in experiment [4] is “suppressed footpad edema”. The “suppression … by IgE stimulation” value in experiment [5] was “suppressed the footpad edema”.
Consider `CCn1ccc2cc(-c3cc(CCC(=O)O)ccc3OC3CCCCC3)ccc21` [Compound 248, 3-[4-cyclohexyloxy-3-(1-ethyl-1H-indol-5-yl)phenyl]propionic acid], for which the inhibition at 0.4 µM in experiment [1], in experiment [2] and in experiment [3] was ≥ 50% throughout. Besides, the “suppression … by zymosan” value in experiment [4] is reported as “suppressed footpad edema”. The “suppression … by IgE stimulation” value in experiment [5] is recorded as “suppressed the footpad edema”.
With `O=C(O)CCc1cc(F)c(OCC2CCCC2)c(-c2ccc3[nH]ccc3c2)c1` [Compound 261, 3-[4-cyclopentylmethyloxy-3-fluoro-5-(1H-indol-5-yl)phenyl]propionic acid], the inhibition at 0.4 µM in experiment [1], in experiment [2] and in experiment [3] was ≥ 50% each time. In experiment [4], the “suppression … by zymosan” value was “suppressed footpad edema”. Besides, the “suppression … by IgE stimulation” value in experiment [5] was “suppressed the footpad edema”.
Regarding `O=C(O)CCc1ccc(OCC2CCCC2)c(-c2ccc3sccc3c2)c1` [Compound 281, 3-[3-(benzo[b]thiophen-5-yl)-4-cyclopentylmethyloxyphenyl]propionic acid], the inhibition at 0.4 µM in experiment [1], in experiment [2] and in experiment [3] was ≥ 50% throughout. Moreover, the “suppression … by zymosan” value in experiment [4] is given as “suppressed footpad edema”. Further, the “suppression … by IgE stimulation” value in experiment [5] is “suppressed the footpad edema”.
For `Nc1nc2ccc(-c3cc(CCC(=O)O)ccc3OCC3CCCCC3)cc2s1` [Compound 289, 3-[3-(2-aminobenzothiazol-6-yl)-4-cyclohexylmethyloxyphenyl]propionic acid], the inhibition at 0.4 µM in experiment [1], in experiment [2] and in experiment [3] was ≥ 50% throughout. Also, the “suppression … by zymosan” value in experiment [4] is “suppressed footpad edema”. The “suppression … by IgE stimulation” value in experiment [5] is on record as “suppressed the footpad edema”.
In the case of `Nc1nc2ccc(-c3cc(CCC(=O)O)ccc3OC3CCCC3)cc2s1` [Compound 293, 3-[3-(2-aminobenzothiazol-6-yl)-4-cyclopentyloxyphenyl]propionic acid], the inhibition at 0.4 µM in experiment [1], in experiment [2] and in experiment [3] was ≥ 50% in each case. In addition, in experiment [4], the “suppression … by zymosan” value was “suppressed footpad edema”. In addition, the “suppression … by IgE stimulation” value in experiment [5] is given as “suppressed the footpad edema”.
As for `O=C(O)CCc1ccc(OCC2CCCC2)c(-c2ccc3ncsc3c2)c1` [Compound 299, 3-[3-(benzothiazol-6-yl)-4-cyclopentylmethyloxyphenyl]propionic acid], the inhibition at 0.4 µM in experiment [1], in experiment [2] and in experiment [3] was ≥ 50% throughout. In experiment [4], the “suppression … by zymosan” value is reported as “suppressed footpad edema”. Moreover, the “suppression … by IgE stimulation” value in experiment [5] is listed as “suppressed the footpad edema”.
In the case of `O=C(O)CCc1ccc(OCC2CCCCC2)c(-c2cnc3ccccc3c2)c1` [Compound 317, 3-[4-cyclohexylmethyloxy-3-(quinolin-3-yl)phenyl]propionic acid], the inhibition at 0.4 µM in experiment [1], in experiment [2] and in experiment [3] was ≥ 50% each time. Further, the “suppression … by zymosan” value in experiment [4] is listed as “suppressed footpad edema”. In experiment [5], the “suppression … by IgE stimulation” value was “suppressed the footpad edema”.
